Where “and” joins values, the source holds several entries; their conditions need not be identical. Equal entries are not always repeated. Where two headings read alike, the source gives them in different places.
Key:
TLR7/8 [1] = system: T1, TLR7/8; test: Subsequent human PBMC assay, various TLR7/8 ligands, IL-6 and IFN-α blockade; type: cell-based
T1 construct: other: human PBMC; ligand SL4-Ig; individual donors 1-6; average of donors; ligand RNA40-DOTAP; individual donors; ligand R848; ligand
Method: (§1) Human PBMC Cell-Based Assay. Human peripheral blood mononuclear cells (PBMC) were isolated from freshly-drawn heparinized (10 USP units/ml, Hospira, Lakeforest, Ill.) healthy donor whole blood by density gradient (Histopaque® 1077, Sigma, Inc., St. Louis, Mo.). Briefly, 25 ml blood was diluted with 15 ml PBS (without Ca^2+, Mg^2+) in a 50 ml conical tube, and 12 ml Histopaque was underlaid using a spinal needle. Tubes were centrifuged for 45 minutes at 1200 rpm (350×g), and PBMC were collected from the buffy coat. Cells were then washed twice in PBS, and red blood cells were lysed by suspension in 5 ml ammonium chloride solution (1× Red Blood Cell Lysis Buffer, eBioscience) for 5 minutes at room temperature. After a final wash in PBS, PBMC were resuspended at a final concentration of 2×10^6/ml in RPMI-1640 media with L-glutamine (Invitrogen) and supplemented with 25 mM HEPES (Mediatech, Inc, Manassas Va.), 10% fetal bovine serum (HyClone, Logan, Utah), and Penicillin-Streptomycin-Glutamine (Mediatech) and plated at 100 ul/well (2×10^5 cells/well) in tissue culture treated 96-well plates (Falcon).
(§2) Antagonist compounds solubilized and serial diluted in 100% DMSO were added in triplicate to cells to yield a final concentration of 0.1% DMSO (v/v). Hydroxychloroquine (Acros Organics) solubilized and serial diluted in PBS was added in triplicate to cells. PBMC were incubated with antagonist compounds or HCQ for 30 minutes at 37° C., 5% CO2 before adding various TLR agonist reagents in 100 ul complete media per well as follows (final concentrations indicated): R848 (Resiquimod; GLSynthesis, Worcester, Mass.) at 1 uM for TLR7 and TLR8, LPS (Sigma) at 10 ng/ml for TLR4, and CpG-2216 (InvivoGen) at 5 ug/ml for TLR9. To prepare a TLR7/8 agonist that mimics RNA-containing auto-antibody immune complexes in lupus patients, a 26-mer RNA with a sequence derived from human U1 snRNA stem loop IV [(sequence: […]-[…] (SEQ ID NO: 2) with phosphorothioate backbone] was synthesized (Dharmacon, Inc., Lafayette, Colo.), which has been shown previously to be a potent TLR7 and TLR8 agonist. This RNA molecule was diluted to 2.5 μM in serum-free RPMI, and mouse anti-human single stranded DNA monoclonal antibody (MAB3034, Millipore, Inc., Billerica, Mass.), which also cross-reacts with RNA, was added at a 1:25 dilution or at 1 ug/ml. The resulting “RNA-Ig” stimulus was incubated at room temperature for 15-30 minutes before adding to cells. PBMC were incubated with the various TLR agonists for 20 hours at 37° C., 5% CO2. Cell culture supernatants were collected, and levels of various human cytokines were assessed as indicated by standard ELISA procedure according to the manufacturer's recommended protocol (BD Biosciences, Inc., San Diego, Calif.). In a subsequent assay (Table 6) the ability of ER-899742 to block stimulation of normal PBMC by various TLR7/8 ligands, but not DNA-mediated activation of TLR9, was examined. In this assay cells were plated at 1×10^5 cells/well in 100 ul in 96-well plates.

TLR7/8 [2] = system: T2, TLR7/8; test: as above; type: cell-based
T2 construct: other: human PBMC; ligand SL4-Ig; individual donors 1-6; average of donors; ligand RNA40-DOTAP; individual donors; ligand R848; ligand R848
Method: as §1, §2

[3] = read-out: IC50 IFN-α Ave., ligand R848, average of donors
[4] = read-out: IC50 IFN-α Ave., ligand RNA40-DOTAP, average of donors
[5] = read-out: IC50 IFN-α Ave., ligand SL4-Ig, average of donors
[6] = read-out: IC50 IL-6 Ave., ligand R848, average of donors
[7] = read-out: IC50 IL-6 Ave., ligand RNA40-DOTAP, average of donors
[8] = read-out: IC50 IL-6 Ave., ligand SL4-Ig, average of donors

Compound	IC50 (TLR7/8 [1]; [3])	IC50 (TLR7/8 [1]; [4])	IC50 (TLR7/8 [1]; [5])	IC50 (TLR7/8 [1]; read-out: IC50 IFN-α, ligand R848, individual donors)	IC50 (TLR7/8 [1]; read-out: IC50 IFN-α, ligand RNA40-DOTAP, individual donors)	IC50 (TLR7/8 [1]; read-out: IC50 IFN-α, ligand SL4-Ig, individual donors 1-6)	IC50 (TLR7/8 [2]; read-out: IC50 IL-6, ligand R848, individual donors)	IC50 (TLR7/8 [2]; read-out: IC50 IL-6, ligand RNA40-DOTAP, individual donors)	IC50 (TLR7/8 [2]; read-out: IC50 IL-6, ligand SL4-Ig, individual donors 1-6)	IC50 (TLR7/8 [2]; [6])	IC50 (TLR7/8 [2]; [7])	IC50 (TLR7/8 [2]; [8])	IC50 (TLR7/8 [1]; read-out: IC50 IFN-α, ligand R848, individual donors, hydrochloride)	IC50 (TLR7/8 [1]; read-out: IC50 IFN-α, ligand RNA40-DOTAP, individual donors, hydrochloride)	IC50 (TLR7/8 [1]; read-out: IC50 IFN-α, ligand SL4-Ig, individual donors 1-6, hydrochloride)	IC50 (TLR7/8 [2]; read-out: IC50 IL-6, ligand R848, individual donors, hydrochloride)	IC50 (TLR7/8 [2]; read-out: IC50 IL-6, ligand RNA40-DOTAP, individual donors, hydrochloride)	IC50 (TLR7/8 [2]; read-out: IC50 IL-6, ligand SL4-Ig, individual donors 1-6, hydrochloride)
CCN(CCO)CCCC(C)Nc1ccnc2cc(Cl)ccc12 (stereo not drawn) [HCQ, hydroxychloroquine, reference compound]	1950 nM	598 nM	392 nM	1250 nM and 2570 nM and 2030 nM	490 nM and 410 nM and 990 nM and 502 nM	459 nM and 324 nM	> 10000 nM	10000 nM and 10800 nM and > 10000 nM and 15500 nM and 18000 nM and 6100 nM	5200 nM and 3700 nM and 3200 nM and 3600 nM and 4300 nM and 4600 nM	> 10000 nM	12100 nM	4100 nM	–	–	–	–	–	–
C[C@@H]1CN(c2ccc(C#N)c3ncccc23)C[C@H](C(=O)N[C@H]2CNC[C@H]2F)O1.Cl [ER-899742, (2R,6R)-4-(8-cyanoquinolin-5-yl)-N-[(3S,4R)-4-fluoropyrrolidin-3-yl]-6-methylmorpholine-2-carboxamide hydrochloride]	11 nM	13.9 nM	1.4 nM	–	–	–	–	–	–	5.9 nM	31.3 nM	4.2 nM	12 nM and 11 nM and 10 nM	9.6 nM and 18 nM and 11 nM and 17 nM	2.2 nM and 0.5 nM	6.5 nM and 7 nM and 4.9 nM and 5.5 nM and 8.1 nM and 3.4 nM	23 nM and 54 nM and 33 nM and 29 nM and 14 nM and 35 nM	3.2 nM and 4.3 nM and 2.5 nM and 3.3 nM and 7.7 nM

Source: patent USRE47193E1, “Selectively substituted quinoline compounds” (EISAI R&D MANAGEMENT CO., LTD., priority 2013, dated 2019)
